Measured values as given in US20090023753A1, “1,3-Thiazole-5-Carboxamides Useful as Cancer Chemotherapeutic Agents” (Bayer HealthCare AG, priority 2005, published 2009).

What was measured:
[1] = tested on: P-AKT/PKB in H209 small cell lung carcinoma cells; experiment: P-AKT/PKB Cytoblot Assay with H209 cells (SCF-stimulated); format: cell-based; conditions: Homo sapiens, NCI-H209, 1 hour compound incubation, SCF 25 ng/mL for 5 minutes, p-(S473) AKT
Text: The utility of the compounds of the present invention can be illustrated, for example, by their activity in the P-AKT/PKB Cytoblot Assay described below. The involvement of the P-AKT/PKB[PI3K/AKt] pathway as a target for cancer chemotherapy has been recognized in the art. For example, see F. Chang et al, Involvement of PI3K/Akt pathway in cell cycle progression, apoptosis, and neoplastic transformation: a target for cancer chemotherapy, Leukemia, 2003, 17: p. 590-603; K. A. West et al, Activation of the PI3K/Akt pathway and chemotherapeutic resistance, Drug Resistance Updates, 2002, 5: p. 234-248; and P. Sen et al, Involvement of the Akt/PKB signaling pathway with disease processes, Molecular and Cellular Biochemistry, 2003, 253: p. 241-246.
P-AKT/PKB Cytoblot Assay Protocol with H209 Cells
H209 small cell lung carcinoma cells in log phase were plated at 50,000 cells/well in 96-well poly-lysine coated, clear bottom/black-sided plates (Becton-Dickinson, USA Cat # 354640) in 100 Ill RPMI medium containing 0.1% (w/v) BSA, and incubated overnight at 37° C. in 5% CO2 incubator. The following day, compounds (10 mM stock solutions in DMSO) were added to the plates to generate final concentrations of 0.0, 0.01, 0.03, 0.1, 0.3, 1.0, 3.0 and 10 μM for IC50 determinations and incubated for 1 hour at 37° C. Cells were then left untreated or stimulated with Stem Cell Factor (SCF: Biosource Cat # PHC2116) at a final concentration of 25 ng/mL for 5 minutes at 37° C. in 5% CO2 incubator. The media was then removed using a vacuum manifold and the cells were washed once with Tris Buffered Saline (TBS). Cells were then fixed by adding 200 μl of cold 3.7% (v/v) formaldehyde in TBS to each well for 15 minutes at 4° C. After removal of the formaldehyde, the cells were treated with the addition of 50 μl of methanol (at −20° C.) to each well for 5 minutes. After removal of the methanol, 200 μl of 1% (w/v) BSA in TBS was added to each well to block non-specific antibody binding sites and the plate was incubated at room temperature for 30 minutes.
After removal of the blocking buffer, 50 μl of p-(S473) AKT rabbit polyclonal antibody (Cell Signaling, USA Cat # 9277S) was added at a dilution of 1:250 in 0.1% (w/v) BSA in TBS, and the plate was incubated at room temperature for 1 hour. Plates were then washed 3 times with cold TBS containing 0.05% (v/v) Tween 20 (TBS-T) and 100 μl of Horseradish peroxidase (HRP)-conjugated goat-anti-rabbit antibody (Amersham, USA Cat # NA934V) at a dilution of 1:250 in TBS-T was added and the plate was incubated at room temperature for 1 h. After washing with ice-cold TBS-T four times, 100 μl of Enhanced Chemiluminescence (ECL) reagent (Amersham, USA Cat# RPN2209) was added to each well and mixed on a mini-orbital shaker for 1 min. The plate was then read on a Perkin Elmer Victor 5 Multilabel Counter (#1420-0421).

[2] = tested on: phospho-ERK in MDA-MB-231 cells; experiment: Phospho-ERK Cytoblot Assay with MDA-MB 231 cells; format: cell-based; conditions: Homo sapiens, 1 hour compound incubation, phospho-p44/42 MAP kinase (Thr202/Tyr204)
Text: The utility of the compounds of the present invention can also be illustrated, for example, by their activity in the phosph-ERK Assay described below. Growth-factor induction of the RAS/MEK/ERK signaling pathway leads to the induction of phosphorylation of a number of proteins including phospho-ERK (See C. J. Marshall, MAP kinase kinase kinase, MAP kinase kinase and MAP kinase, Current Opinions in Genetic Development, 1994, 4: p. 82-89). The importance of this pathway in cancer biology has been recognized in the art. Activation of the RAS signaling pathway is an important mechanism by which cancer develops (R. Herrera, et al, Unraveling the complexities of the Raf/MAP kinase pathway for pharmacological intervention, Trends Mol. Med., 2002, 8: p. S27-31). Mutational activation of RAS or downstream effectors as well as growth factor induction of this pathway leads to increased tumor cell proliferation and survival (A. A. Adjei, Blocking oncogenic RAS signaling for cancer therapy, J. Natl. Cancer Inst., 2001, 93(14): p. 1062-1074; J Schlessinger, Cell signaling by receptor tyrosine kinases, Cell, 2000, 103: p. 211-225). Phospho-ERK Cytoblot Assay Protocol with MDA-MB 231 Cells MDA-MB-231 cells in log phase were plated at 25,000 cells/well in 96-well opaque plates (Falcon, USA Cat # 353296) in 100 μL RPMI medium containing 10% (w/v) FBS, and incubated overnight at 37° C. in 5% CO2 incubator. The following day, the growth medium was removed from the plate by aspiration and replaced with RPMI medium containing 0.1% BSA and example compounds diluted to generate final concentrations of 0.0, 0.001, 0.003, 0.01, 0.03, 0.1, 0.3, 1 and 3 μM. Cells were incubated with compound for 1 hour at 37° C. in a 5% CO2 incubator. The media was then removed from the plate by aspiration and the cells were washed once with 180 μL/well cold Tris Buffered Saline (TBS). After removal of the wash buffer, the cells were fixed by adding 180 μL of cold 3.7% (v/v) formaldehyde in TBS to each well for 1 hour at 4° C. After removal of the formaldehyde, the cells were treated with the addition of 60 μL of −20° C. methanol to each well for 5 minutes at 4° C. The methanol was removed and the cells were washed with 180 μL/well of 5% (w/v) BSA in TBS. To block non-specific antibody binding sites, each well was treated with 180 μL/well 5% BSA (w/v) in TBS for thirty minutes at room temperature. After removal of the blocking buffer, 50 μL of an anti-phospho-p44/42 MAP kinase (Thr202/Tyr204) rabbit polyclonal antibody (Cell Signaling, USA Cat # 9101) was added to each well at a dilution of 1:1000 in 5% (w/v) BSA in TBS, and the plate was incubated at 4° C. overnight. Plates were then washed three times with 300 μL/well TBS at room temperature. The plates were then incubated with 50 μL of Horseradish peroxidase (HRP)-conjugated goat-anti-rabbit antibody (Amersham, USA Cat. # NA934V) at a dilution of 1:1000 in 5% BSA-TBS at room temperature for 1 hr. After washing the plate three times with 300 μL/well TBS, 60 μL of Enhanced Chemiluminescence (ECL) reagent (Amersham, USA Cat# RPN2209) was added to each well and incubated at room temperature for five minutes. The plate was then read on a Perkin Elmer Victor 5 Multilabel Counter (#1420-0421). […] The utility of the compounds of the present invention can also be illustrated, for example, by their activity in the flk-1 (murine VEGFR2) Assay described below. The VEGF-VEGFR2 signaling pathway has been extensively characterized as an important regulator of angiogenesis and tumor angiogeneisis (See G. Yancopoulos et al, Vascular-specific growth factors and blood vessel formation, Nature, 2000, 407: p. 242-248; D. Shweiki et al, Induction of vascular endothelial growth factor expression by hypoxia and by glucose deficiency in multi cell spheroids: Implications for tumor angiogenesis, Proc. Natl. Acad. Sci, 1995, 92: p. 768-772). Inhibition of tumor cell growth by blocking this pathway has been well documented in the art. […]

[3] = target: T1, Flk-1 (murine VEGFR-2) kinase domain (Mus musculus, UniProt P35918); experiment: Flk-1 (murine VEGFR-2) Biochemical Assay (TR-FRET); conditions: 10 μM ATP, 7 nM Flk-1 (kinase domain)
T1 construct: 7 nM Flk-1 (kinase domain)
T1 sequence (P35918 832-1160 limits assumed): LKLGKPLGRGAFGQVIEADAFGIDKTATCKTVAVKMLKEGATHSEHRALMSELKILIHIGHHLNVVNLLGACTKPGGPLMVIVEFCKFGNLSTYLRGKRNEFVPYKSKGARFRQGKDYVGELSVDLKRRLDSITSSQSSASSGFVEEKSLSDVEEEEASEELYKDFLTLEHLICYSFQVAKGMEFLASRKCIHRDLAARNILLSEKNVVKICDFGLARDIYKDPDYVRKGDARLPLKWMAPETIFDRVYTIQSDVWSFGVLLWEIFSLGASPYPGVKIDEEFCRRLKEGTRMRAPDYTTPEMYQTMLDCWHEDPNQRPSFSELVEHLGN

IC50 [1] [nM] | IC50 [2] [nM] | IC50 [3] [nM] | SMILES
< 500 | < 3000 | < 500 | CC(=O)Nc1cc(CNc2ncsc2C(=O)Nc2ccc3c(c2)OC(F)(F)C(F)(F)O3)ccn1 [Example 11, 4-({[2-(acetylamino)pyridin-4-yl]methyl}amino)-N-(2,2,3,3-tetrafluoro-2,3-dihydro-1,4-benzodioxin-6-yl)-1,3-thiazole-5-carboxamide]
< 500 |  | < 500 | CS(=O)(=O)Nc1cc(CNc2ncsc2C(=O)Nc2ccc3c(c2)OC(F)(F)C(F)(F)O3)ccn1 [Example 12, 4-[({2-[(methylsulfonyl)amino]pyridin-4-yl}methyl)amino]-N-(2,2,3,3-tetrafluoro-2,3-dihydro-1,4-benzodioxin-6-yl)-1,3-thiazole-5-carboxamide]
< 500 |  |  | Nc1cc(CNc2ncsc2C(=O)Nc2ccc3c(c2)OC(F)(F)O3)ccn1 [Example 15, 4-{[(2-aminopyridin-4-yl)methyl]amino}-N-(2,2-difluoro-1,3-benzodioxol-5-yl)-1,3-thiazole-5-carboxamide]
< 500 |  | < 500 | Nc1cc(CNc2ncsc2C(=O)Nc2ccc3c(c2)OC(F)(F)C(F)(F)O3)ccn1 [Example 16, 4-{[(2-aminopyridin-4-yl)methyl]amino}-N-(2,2,3,3-tetrafluoro-2,3-dihydro-1,4-benzodioxin-6-yl)-1,3-thiazole-5-carboxamide]

Continued, molecule first:

SMILES | IC50 [1] [nM] | IC50 [2] [nM] | IC50 [3] [nM]
CNC(=O)c1cc(CNc2ncsc2C(=O)Nc2ccc3c(c2)OC(F)(F)O3)ccn1 [Example 1, 4-{[(5-{[(2,2-difluoro-1,3-benzodioxol-5-yl)amino]carbonyl}-1,3-thiazol-4-yl)amino]methyl}-N-methylpyridine-2-carboxamide] | < 500 | < 3000 | < 500
CNC(=O)c1cc(CNc2ncsc2C(=O)Nc2ccc3c(c2)OC(F)(F)C(F)(F)O3)ccn1 [Example 2, N-methyl-4-{[(5-{[(2,2,3,3-tetrafluoro-2,3-dihydro-1,4-benzodioxin-6-yl)amino]carbonyl}-1,3-thiazol-4-yl)amino]methyl}pyridine-2-carboxamide] | < 500 | < 3000 | < 500
NC(=O)c1cc(CNc2ncsc2C(=O)Nc2ccc3c(c2)OC(F)(F)O3)ccn1 [Example 3, 4-{[(5-{[(2,2-difluoro-1,3-benzodioxol-5-yl)amino]carbonyl}-1,3-thiazol-4-yl)amino]methyl}pyridine-2-carboxamide] | < 500 |  | < 500
O=C(NCCCCN1CCCC1)c1cc(CNc2ncsc2C(=O)Nc2ccc3c(c2)OC(F)(F)O3)ccn1 [Example 5, 4-{[(5-{[(2,2-difluoro-1,3-benzodioxol-5-yl)amino]carbonyl}-1,3-thiazol-4-yl)amino]methyl}-N-(4-pyrrolidin-1-ylbutyl)pyridine-2-carboxamide] |  |  | < 500
CN(C)CCCCNC(=O)c1cc(CNc2ncsc2C(=O)Nc2ccc3c(c2)OC(F)(F)O3)ccn1 [Example 6, 4-{[(5-{[(2,2-difluoro-1,3-benzodioxol-5-yl)amino]carbonyl}-1,3-thiazol-4-yl)amino]methyl}-N-[4-(dimethylamino)butyl]pyridine-2-carboxamide] | < 500 |  | < 500
COCC(=O)Nc1cc(CNc2ncsc2C(=O)Nc2ccc3c(c2)OC(F)(F)O3)ccn1 [Example 7, N-(2,2-difluoro-1,3-benzodioxol-5-yl)-4-[([2-[(methoxyacetyl)amino]pyridin-4-yl]methyl)amino]-1,3-thiazole-5-carboxamide] | < 500 | < 3000 | < 500
COCC(=O)Nc1cc(CNc2ncsc2C(=O)Nc2ccc3c(c2)OC(F)(F)C(F)(F)O3)ccn1 [Example 8, 4-[({2-[(methoxyacetyl)amino]pyridin-4-yl}methyl)amino]-N-(2,2,3,3-tetrafluoro-2,3-dihydro-1,4-benzodioxin-6-yl)-1,3-thiazole-5-carboxamide] | < 500 | < 3000 | < 500
COCCOCC(=O)Nc1cc(CNc2ncsc2C(=O)Nc2ccc3c(c2)OC(F)(F)C(F)(F)O3)ccn1 [Example 9, 4-{[(2-{[(2-methoxyethoxy)acetyl]amino}pyridin-4-yl)methyl]amino}-N-(2,2,3,3-tetrafluoro-2,3-dihydro-1,4-benzodioxin-6-yl)-1,3-thiazole-5-carboxamide] | < 500 | < 3000 | < 500
CC(=O)Nc1cc(CNc2ncsc2C(=O)Nc2ccc3c(c2)OC(F)(F)O3)ccn1 [Example 10, 4-([{2-(acetylamino)pyridin-4-yl]methyl}amino)-N-(2,2-difluoro-1,3-benzodioxol-5-yl)-1,3-thiazole-5-carboxamide] | < 500 | < 3000 | < 500
